target: placental alkaline phosphatase (ALPP), human; test: human placental alkaline phosphatase inhibition – biochemical, luminescence, confirmation (AID 1512); conditions: purified PLAP enzyme, luminescent substrate read-out

| Compound | IC50 [µM] |
| --- | --- |
| Cc1cn(CC(=O)c2ccc(O)c(O)c2)cn1 | 5.81 |
| O=C(Cn1ccnc1-c1ccccc1)c1ccc(O)c(O)c1 | 17.2 |
| Cc1cc2ncn(CC(=O)c3ccc(O)c(O)c3)c2cc1C | 5.83 |
| Cc1cc(C)nc(NCc2ccc(O)c(O)c2)n1 | 51.2 |
| CC(C)NCC(=O)c1ccc(O)c(O)c1 | 39.3 |
| O=C(CNc1nc2ccccc2[nH]1)c1ccc(O)c(O)c1 | 9.11 |
| Cc1nc(Br)cn1CC(=O)c1ccc(O)c(O)c1 | 4.96 |

Reference: PubChem BioAssay AID1512 (Sanford-Burnham Center for Chemical Genomics, 2009)
